Measured values: ChEMBL document CHEMBL3232949, “Rapid identification of Keap1-Nrf2 small-molecule inhibitors through structure-based virtual screening and hit-based substructure search” (J Med Chem, 2014)
Active and inactive are the calls of the source. No cut-off for these calls is given here.

Tests used:
Keap1/Nrf2 = Keap1/Nrf2 (Homo sapiens, UniProt Q14145); assay: Inhibition of Keap1-Nrf2 (unknown origin) interaction assessed as compound's equilibrium dissociation constant after 60 mins by fluorescence anisotropy assay; type: protein assay
Sequence of Keap1/Nrf2 (Q16236 whole entry): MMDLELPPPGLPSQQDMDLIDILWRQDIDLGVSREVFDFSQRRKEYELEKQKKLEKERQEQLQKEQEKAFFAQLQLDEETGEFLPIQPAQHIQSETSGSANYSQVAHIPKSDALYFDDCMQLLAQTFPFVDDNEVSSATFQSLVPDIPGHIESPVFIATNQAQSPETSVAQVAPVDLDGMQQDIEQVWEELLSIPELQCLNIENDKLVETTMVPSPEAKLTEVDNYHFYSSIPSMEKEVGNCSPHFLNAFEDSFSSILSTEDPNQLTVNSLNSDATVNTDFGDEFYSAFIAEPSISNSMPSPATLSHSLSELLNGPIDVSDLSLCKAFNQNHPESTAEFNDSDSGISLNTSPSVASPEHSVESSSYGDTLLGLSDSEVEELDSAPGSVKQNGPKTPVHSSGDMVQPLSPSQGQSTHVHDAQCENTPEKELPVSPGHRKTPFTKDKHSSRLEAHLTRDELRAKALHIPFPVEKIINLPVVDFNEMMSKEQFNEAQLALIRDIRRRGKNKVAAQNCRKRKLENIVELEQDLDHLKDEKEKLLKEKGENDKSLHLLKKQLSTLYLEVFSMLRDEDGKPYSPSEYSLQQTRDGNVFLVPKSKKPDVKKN
Sequence of Keap1/Nrf2 (Q14145 whole entry): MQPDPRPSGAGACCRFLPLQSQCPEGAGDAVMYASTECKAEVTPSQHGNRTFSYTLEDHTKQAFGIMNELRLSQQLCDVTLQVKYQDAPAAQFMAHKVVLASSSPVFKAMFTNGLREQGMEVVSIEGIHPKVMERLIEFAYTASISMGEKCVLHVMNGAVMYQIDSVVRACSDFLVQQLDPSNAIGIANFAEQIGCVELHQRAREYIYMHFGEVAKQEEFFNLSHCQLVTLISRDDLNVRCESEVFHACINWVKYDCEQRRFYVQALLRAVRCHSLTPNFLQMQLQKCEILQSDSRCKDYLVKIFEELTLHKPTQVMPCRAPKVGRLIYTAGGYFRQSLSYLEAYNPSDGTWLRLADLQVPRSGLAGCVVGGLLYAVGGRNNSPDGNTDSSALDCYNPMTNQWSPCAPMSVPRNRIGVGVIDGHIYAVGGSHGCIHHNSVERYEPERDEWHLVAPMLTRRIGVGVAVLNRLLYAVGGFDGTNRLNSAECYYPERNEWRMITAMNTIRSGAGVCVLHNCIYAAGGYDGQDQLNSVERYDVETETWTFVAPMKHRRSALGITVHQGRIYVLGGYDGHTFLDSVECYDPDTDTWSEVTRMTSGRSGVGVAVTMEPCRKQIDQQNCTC

[1] = biological target: Kelch-like ECH-associated protein 1 (Homo sapiens) (UniProt Q14145)
Sequence of Kelch-like ECH-associated protein 1 (Homo sapiens) (Q14145 whole entry): as above
Description: Binding affinity to kelch domain of Keap1 (unknown origin) assessed as change in melting temperature after 15 mins by differential scanning fluorimetry assay

[2] = biological target: T1, Nuclear factor erythroid 2-related factor 2 (Rattus norvegicus) (UniProt O54968); assay: Activation of Nrf2 in rat PC12 cells assessed as increase of NQO-1 mRNA level at 1 to 4 uM after 4.5 to 9 hrs by qRT-PCR analysis; type: cell-based; details: PC-12
T1 sequence (whole entry): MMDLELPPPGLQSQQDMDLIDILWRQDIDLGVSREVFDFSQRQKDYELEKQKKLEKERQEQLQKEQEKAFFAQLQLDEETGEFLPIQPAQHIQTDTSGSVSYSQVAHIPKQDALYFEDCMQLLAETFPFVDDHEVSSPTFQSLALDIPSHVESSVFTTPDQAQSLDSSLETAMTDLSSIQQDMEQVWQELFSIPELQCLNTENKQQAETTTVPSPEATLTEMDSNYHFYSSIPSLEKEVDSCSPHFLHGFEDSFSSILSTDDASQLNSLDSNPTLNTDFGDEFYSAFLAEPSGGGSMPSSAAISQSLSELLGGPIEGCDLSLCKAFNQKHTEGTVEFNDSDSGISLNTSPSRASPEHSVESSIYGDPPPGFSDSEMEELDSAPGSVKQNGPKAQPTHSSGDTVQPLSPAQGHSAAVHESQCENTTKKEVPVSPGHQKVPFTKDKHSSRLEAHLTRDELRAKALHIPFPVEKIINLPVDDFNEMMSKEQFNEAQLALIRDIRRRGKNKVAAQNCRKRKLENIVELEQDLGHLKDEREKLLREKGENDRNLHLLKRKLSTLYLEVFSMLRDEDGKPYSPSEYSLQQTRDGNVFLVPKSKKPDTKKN

[3] = biological target: T1, Nuclear factor erythroid 2-related factor 2 (Rattus norvegicus); assay: Activation of Nrf2 in rat PC12 cells assessed as increase of HO-1 mRNA level at 1 to 4 uM after 4.5 to 9 hrs by qRT-PCR analysis; type: cell-based; details: PC-12
[4] = biological target: T1, Nuclear factor erythroid 2-related factor 2 (Rattus norvegicus); assay: Activation of Nrf2 in rat PC12 cells assessed as increase of HO-1 mRNA level at 1 to 4 uM by qRT-PCR analysis; type: cell-based; details: PC-12, TDE = time-dependent effect
[5] = biological target: T1, Nuclear factor erythroid 2-related factor 2 (Rattus norvegicus); assay: Activation of Nrf2 in rat PC12 cells assessed as increase of HO-1 mRNA level after 4.5 to 9 hrs by qRT-PCR analysis; type: cell-based; details: PC-12
[6] = biological target: T1, Nuclear factor erythroid 2-related factor 2 (Rattus norvegicus); assay: Induction of nuclear translocation of Nrf2 in rat PC12 cells at 4 uM after 1.5 hrs by Western blot analysis; type: cell-based; details: PC-12
[7] = biological target: T1, Nuclear factor erythroid 2-related factor 2 (Rattus norvegicus); assay: Induction of nuclear translocation of Nrf2 in rat PC12 cells at 4 uM after 4.5 hrs by Western blot analysis; type: cell-based; details: PC-12

| SMILES | Kd (Keap1/Nrf2) [µM] | also measured |
| --- | --- | --- |
| CN1C(=O)S/C(=C\c2cccn2-c2cccc(C(=O)O)c2)C1=O | > 100 |  |
| COc1ccc(S(=O)(=O)Nc2cc(Sc3nc[nH]n3)c(O)c3ccccc23)cc1 | 6.8 |  |
| O=C1NN(c2cccc(Cl)c2)C(=O)/C1=C\c1ccc(-c2ccc(C(=O)O)c(Cl)c2)o1 | 15.2 | ΔTm [1]: 2 °C |
| O=C(O)CSc1cc(NS(=O)(=O)c2ccc(F)cc2)c2ccccc2c1O | 30.2 |  |
| O=C(CN1C(=O)S/C(=C\c2cccn2-c2cccc(C(=O)O)c2)C1=O)Nc1ccc(Cl)cc1 | > 100 |  |
| COc1ccc(S(=O)(=O)Nc2ccc(NS(=O)(=O)c3ccc(OC)cc3)c3ccccc23)cc1 |  | Activity [2]: inactive; ΔTm [1]: 1 °C; Activity [3]: inactive |
| Cc1cccc(C)c1NC(=O)CN1C(=O)S/C(=C\c2cccn2-c2cccc(C(=O)O)c2)C1=O | > 100 |  |
| Cc1ccc(S(=O)(=O)Nc2cc(Sc3cccc4cccnc34)c(O)c3ccccc23)cc1 | > 100 |  |
| CC(C)c1ccc(S(=O)(=O)Nc2cc(Sc3nc[nH]n3)c(O)c3ccccc23)cc1 |  | Activity [4]: tde; Activity [5]: Dose-dependent effect; Activity [6]: Active; Activity [7]: inactive |
| CCOc1cc(/C=C2\N=C(c3ccccc3)OC2=O)cc(Br)c1OCC(=O)O | 29.5 |  |
| O=C(O)CSc1cc(NS(=O)(=O)c2cccs2)c2ccccc2c1O | 36.6 |  |
| Cc1ccc(S(=O)(=O)Nc2ccc(O)c(Sc3nc[nH]n3)c2)cc1 | > 100 |  |
| CC(C)(C)c1ccc(S(=O)(=O)Nc2cc(SCc3ccco3)c(O)c3ccccc23)cc1 | > 100 |  |
| O=C1NN(c2ccc(Br)cc2)C(=O)/C1=C\c1ccc(-c2ccccc2)o1 | > 100 |  |
| Cc1cc(C)c(S(=O)(=O)Nc2cc(Cl)c(O)c(Sc3nc[nH]n3)c2)cc1C | 20.9 |  |
| Cc1cc(C)c(S(=O)(=O)Nc2cc(Sc3nc[nH]n3)c(O)c3ccccc23)cc1C | 3.6 |  |

| SMILES | Kd (Keap1/Nrf2) [µM] | also measured |
| --- | --- | --- |
| O=C(O)CSc1cc(NS(=O)(=O)c2ccc3ccccc3c2)c2ccccc2c1O | 7.8 |  |
| O=S(=O)(Nc1cc(Sc2nc[nH]n2)c(O)c2ccccc12)c1ccccc1 | 61.2 |  |
| Cc1ccc(NC(=O)CN2C(=O)S/C(=C\c3cccn3-c3cccc(C(=O)O)c3)C2=O)cc1C | 28.9 |  |
| Cc1cc(C)c(S(=O)(=O)Nc2cc(SCC(=O)O)c(O)c3ccccc23)c(C)c1 | 4.2 |  |
| O=C1NN(c2cccc(Cl)c2)C(=O)/C1=C\c1ccc(-c2ccc(Br)cc2C(=O)O)o1 | 39.5 |  |
| O=C1NN(c2cccc(F)c2)C(=O)/C1=C\c1ccc(-c2ccc(C(=O)O)cc2)o1 | 77.8 |  |
| Cc1ccc(S(=O)(=O)Nc2cc(SCC(=O)O)c(O)c3ccccc23)cc1 | 15.4 |  |
| CC(=O)Oc1c(SCC(=O)O)cc(NS(=O)(=O)c2ccc(F)cc2)c2ccccc12 | > 100 |  |
| O=C(CN1C(=O)S/C(=C\c2cccn2-c2cccc(C(=O)O)c2)C1=O)Nc1ccc(F)cc1 | > 100 |  |
| Cc1ccccc1NC(=O)CN1C(=O)S/C(=C\c2cccn2-c2cccc(C(=O)O)c2)C1=O | 10.4 | ΔTm [1]: 1 °C |
| Cc1ccc(S(=O)(=O)Nc2cc(SCc3ccccc3)c(O)c3ccccc23)cc1 | > 100 |  |
| NC(=O)c1ccc(-c2ccc(/C=C3/C(=O)NN(c4ccc(F)cc4)C3=O)o2)cc1 | > 100 |  |
| O=C(O)CSc1cc(NS(=O)(=O)c2cccc3cccnc23)c2ccccc2c1O | 18.9 |  |
| COc1ccc(-n2cccc2/C=C2\SC(=O)N(CC(=O)Nc3cccc(C)c3)C2=O)cc1 | > 100 |  |
| Cc1cccc(NC(=O)CN2C(=O)S/C(=C\c3cccn3-c3cccc(C(=O)O)c3)C2=O)c1 | 68.2 |  |

The next lines start with results.

| Kd (Keap1/Nrf2) [µM] | SMILES | also measured |
| --- | --- | --- |
| 6.4 | CC(C)c1ccc(S(=O)(=O)Nc2cc(SCC(=O)O)c(O)c3ccccc23)cc1 |  |
| > 100 | COc1ccc(-n2cccc2/C=C2\SC(=O)N(CC(=O)Nc3ccc(C)cc3)C2=O)cc1 |  |
| 12.2 | Cc1cc(F)ccc1S(=O)(=O)Nc1cc(SCC(=O)O)c(O)c2ccccc12 |  |
| > 100 | Cc1cc(C)c(S(=O)(=O)Nc2cc3sc(=O)oc3c3ccccc23)cc1C | ΔTm [1]: 1 °C |
| 47.6 | Cc1ccc(NC(=O)CN2C(=O)S/C(=C\c3cccn3-c3cccc(C(=O)O)c3)C2=O)c(C)c1 |  |
| 42.9 | O=C1NN(c2ccccc2)C(=O)/C1=C\c1ccc(-c2ccc(C(=O)O)c(Cl)c2)o1 |  |
| 75.2 | Cc1oc2c(cc(NS(=O)(=O)c3ccc(Cl)cc3)c3ccccc32)c1C(=O)O |  |
| > 100 | Cc1ccc(S(=O)(=O)Nc2cc(Sc3nc(C)cc(C)n3)c(O)c3ccccc23)cc1 |  |
| > 100 | Cc1ccc(N2NC(=O)/C(=C/c3ccc(-c4ccc(S(=O)(=O)Nc5nccs5)cc4)o3)C2=O)cc1 |  |
| 3.6 | O=S(=O)(Nc1cc(Sc2nc[nH]n2)c(O)c2ccccc12)c1ccc2ccccc2c1 |  |
| 35.4 | Cc1ccc(/N=C2/S/C(=C\c3c(C)n(CC(=O)O)c4ccccc34)C(=O)N2C)cc1 |  |
| > 100 | Cc1cccc(N2NC(=O)/C(=C/c3ccc(-c4ccc(S(N)(=O)=O)cc4)o3)C2=O)c1 |  |
| > 100 | Cc1ccc(S(=O)(=O)Nc2cc(Sc3nc4ccccc4s3)c(O)c3ccccc23)cc1 | ΔTm [1]: 1 °C |
| 49.2 | O=C1NN(c2cccc(Cl)c2)C(=O)/C1=C\c1ccc(-c2cccc(C(=O)O)c2)o1 |  |
| > 100 | COc1ccc(S(=O)(=O)Nc2cc(Sc3ccccc3)c(O)c3ccccc23)cc1 |  |
| 3.1 | CCOc1ccc(S(=O)(=O)Nc2cc(Sc3nc[nH]n3)c(O)c3ccccc23)cc1 | ΔTm [1]: 4 °C |
| > 100 | O=C(CN1C(=O)S/C(=C\c2cccn2-c2ccc(O)cc2)C1=O)Nc1ccccc1F |  |
| > 100 | COC(=O)c1ccc(N2NC(=O)/C(=C/c3ccc(-c4ccc(S(N)(=O)=O)cc4)o3)C2=O)cc1 |  |
| 14.7 | O=C(O)CSc1cc(NS(=O)(=O)c2ccc(Br)cc2)c2ccccc2c1O |  |
| 13.1 | O=S(=O)(Nc1cc(Sc2nc[nH]n2)c(O)c2ccccc12)c1ccc(Br)cc1 |  |
| 23.8 | COc1ccc(NC(=O)CN2C(=O)S/C(=C\c3cccn3-c3ccc(C(=O)O)cc3)C2=O)cc1 |  |
| 15.3 | O=C(O)CSc1cc(NS(=O)(=O)c2ccc(Cl)cc2)c2ccccc2c1O |  |
| 55.5 | O=S(=O)(Nc1cc(Sc2nnnn2-c2ccccc2)c(O)c2ccccc12)c1ccccc1 |  |
| > 100 | Cc1ccc(NC(=O)CN2C(=O)S/C(=C\c3cccn3C)C2=O)c(C)c1 |  |
